Data from US7993687B2, “Compositions and methods for management of diabetes” (priority 2006, dated 2011).

Experiments:
Assay type in all cases: cell-based, rat
[1] = tested on: p42/44 MAPK (Thr202/Tyr204); assay: Western blot of MAPK phosphorylation in H4IIE cells; conditions: for effect of the inhibitor on insulin- and BWE-stimulated phosphorylation of MAPK: preincubation with inhibitor, then insulin or BWE for 6 minutes; for p42/44 P-MAPK (Thr202/Tyr204) phosphorylation, stimulation (fold) relative to the control / phosphorylation of MAPK, stimulation (fold) relative to the control (Table 6): 6 min, one experiment
Description: Tissue culture media, antibiotics, fetal bovine serum (FBS) and Nunc tissue culture plates were purchased from Invitrogen Canada Inc. (Burlington, Ontario, Canada, L7P 1A1). Insulin (Sigma-Aldrich Canada Ltd., Oakville, Ontario, Canada, L6H 6J8) was dissolved in water and added directly to cells at a concentration of 250 nM unless otherwise indicated. The BWE was prepared and analyzed as described in Example 1. Two μL of the BWE were added directly to cells unless otherwise indicated. […] Myo-inositol (Sigma-Aldrich Canada Ltd.) and D-chiro-inositol (Industrial Research Ltd., Wellington, New Zealand) were dissolved in water at an equal concentration to the amounts present in the BWE (Table 3) and 2 μL of each solution (0.1% v/v final concentration) was added directly to cells.
(§1) Rat H4IIE hepatoma cells (American Type Culture Collection, CRL 1548) were cultured following the method disclosed by Yau et al., (1998, Eur. J. Biochem. 253: 91-1). The H4IIE cells were maintained in α-modified Eagle's media containing 10% FBS, 2 mM glutamine, 25 μg·mL^−1 streptomycin and 25 units·mL^−1 penicillin. Cells were plated and grown to 70% confluence. All cells were placed into serum-free medium for 72 h before addition of stimulating agents to ensure entry into a quiescent state.
(§2) Cultures of quiescent H4IIE cells or quiescent FAO cells were placed into 12-well culture dishes containing 2 mL serum-free medium, and then stimulated by direct addition of the inhibitors listed in Table 1 (volumes of additions were 10 μL or less) without replacing the medium. […] The cells in 12-well culture dishes were incubated with stimulating agents for 6 minutes and rinsed with phosphate buffered saline (PBS; 0.9% NaCl, 0.1 M Na3PO4, pH 7.1).
(§3) Cellular protein extracts were prepared by addition of 200 μL 2×SDS/gel loading buffer (0.125 M Tris pH 6.8, 2% SDS, 10% glycerol) to H4IIE cells in 12-well culture dishes. The samples were briefly sonicated, and protein content measured using the BCA protein assay kit. Aliquots containing equal amounts of protein were mixed with bromophenol blue (0.5% (w/v) final concentration) and 2-mercaptoethanol (5% (v/v) final concentration), heated at 95° C. and loaded onto 7.5% or 10% polyacrylamide gels. […] Primary antibodies (diluted 1:1000 in 3% (w/v) BSA) were incubated with the membrane for 60 min at 22° C. Membranes were subsequently washed four times and incubated for an additional 60 min at 1 8-22° C. in 1% (w/v) BSA-TBST with diluted HRP-coupled secondary antibody (1:10 000). HRP was detected using the ECL chemiluminescent system after the membranes had been washed four times.
Quantification of data obtained on film (Kodak X-omat) was accomplished with a GS800 imaging densitometer (Bio-Rad Laboratories) under nonsaturating conditions with local background subtraction. Although multiple exposures were acquired to ensure the absence of film saturation, the experimental figures typically show longer exposures selected specifically for visual presentation and not necessarily used for data analysis. Graphical data are presented as means±SE for a minimum of three replicate samples. […]

H4IIE cells = assay: 3H-deoxyglucose uptake by H4IIE cells; conditions: H4IIE cells; pre-incubated with inhibitor, then insulin
Description: Tissue culture media, antibiotics, fetal bovine serum (FBS) and Nunc tissue culture plates were purchased from Gibco-BRL (division of Invitrogen Canada Inc.). Insulin (Sigma-Aldrich Canada Ltd.) was dissolved in water and added directly to cells at a final concentration of 10^−6 M. The buckwheat extract was prepared and analyzed as in Example 1. Two μL of the buckwheat extract were added directly to cells unless otherwise indicated. Myo-inositol (Sigma Aldrich Canada Ltd.) and D-chiro-inositol (Industrial Research Ltd.) were dissolved in water at an equal concentration to the amounts present in the BWE (Table 3) and 2 μL of each solution was added directly to cells.
Rat H4IIE hepatoma cells (American Type Culture Collection, CRL 1548) were cultured as described in Example 3. Briefly, cells were maintained in α-modified Eagle's media containing 10% FBS, 2 mM glutamine, 50 μg·mL^−1 streptomycin and 50 μg·mL^−1 penicillin. Cells were plated and grown to 70% confluence. All cells were placed into serum-free medium for 72 h before addition of stimulating agents to ensure entry into a quiescent state.
^3H-deoxyglucose uptake was assayed using the method disclosed by Harrison et al. (1990, J. Biol. Chem. 265(10):5793-5801). Quiescent H4IIE cells, in 24-well culture dishes containing 1 mL serum-free medium, were washed three times with physiological salt solution (PSS) ([…], pH 7.4). Cells were placed into 0.5 mL PSS and pre-incubated with inhibitors for 10 minutes prior to the 20 minute stimulation with treatments (insulin, BWE, D-CI, MI). For all experiments, insulin was added at a concentration of 10^−6 M whereas 2 μL volumes of the BWE, D-CI, or MI (0.4% v/v final concentration) were added to cells unless otherwise indicated in figures. Sugar uptake was initiated by the addition of ^3H-deoxyglucose to a final assay concentration of 0.1 mM glucose (1 mCi/mL) and the cells were subsequently incubated for 5 minutes at 37° C. After two rapid washes with ice-cold PSS (0.5-1 mL/well), the cells were solubilized with 0.4 mL of 0.1% SDS, and ^3H was detected in 3 mL of EcoLume scintillant (MP Biomedicals Inc., Costa Mesa, Calif., USA, 92626).
Statistical significance between treatments was determined by one-way ANOVA and by Duncan's multiple range test for means testing (SAS v.9.1, SAS Institute Inc., Cary, N.C.). […] Data are expressed as the mean±SE.
Since insulin has the same effect, we compared the ability of BWE, insulin and two insulin-mimetic compounds (D-CI and MI) to stimulate glucose uptake by H4IIE hepatoma cells. […] Radio-labelled deoxyglucose was added to the medium and glucose uptake was determined by the detection of ^3H in cells.
Fractions (˜1.0 ml) from each solvent extraction were collected and assayed for their effects on MAPK activation as described in Example 3. The effects of selected fractions, alone or in combination with insulin, on the uptake of labelled glucose were assessed following the methods described in Example 4. […] The effects of the solvent fractions on H4IIE cells were assessed with 20-min exposure periods after which, sugar uptake was initiated by the addition of ^3H-deoxyglucose to a final assay concentration of 0.1 mM glucose (1 mCi/mL) and the cells were subsequently incubated for 5 minutes at 37° C. After two rapid washes with ice-cold PSS (0.5-1 mL/well), the cells were solubilized with 0.4 mL of 0.1% SDS, and ^3H was detected in 3 mL of EcoLume scintillant. […]

PDK-1 (Ser241) = assay: Western blot of PDK-1 phosphorylation in H4IIE cells; conditions: 6 min, one experiment
Description: (§4) Tissue culture media, antibiotics, fetal bovine serum (FBS) and Nunc tissue culture plates were purchased from Invitrogen Canada Inc. (Burlington, Ontario, Canada, L7P 1A1). Insulin (Sigma-Aldrich Canada Ltd., Oakville, Ontario, Canada, L6H 6J8) was dissolved in water and added directly to cells at a concentration of 250 nM unless otherwise indicated. The BWE was prepared and analyzed as described in Example 1. Two μL of the BWE were added directly to cells unless otherwise indicated. This amount was chosen on the basis of equivalence to insulin. Myo-inositol (Sigma-Aldrich Canada Ltd.) and D-chiro-inositol (Industrial Research Ltd., Wellington, New Zealand) were dissolved in water at an equal concentration to the amounts present in the BWE (Table 3) and 2 μL of each solution (0.1% v/v final concentration) was added directly to cells.
as §1, §2, §3
(§5) Quantification of data obtained on film (Kodak X-omat) was accomplished with a GS800 imaging densitometer (Bio-Rad Laboratories) under nonsaturating conditions with local background subtraction. Although multiple exposures were acquired to ensure the absence of film saturation, the experimental figures typically show longer exposures selected specifically for visual presentation and not necessarily used for data analysis. Graphical data are presented as means±SE for a minimum of three replicate samples.

Raf (Ser259) = assay: Western blot of Raf phosphorylation in H4IIE cells; conditions: 6 min, one experiment
Description: as §4, §1, §2, §3, §5

[2] = BWE-stimulated, 15-min preincubation with the inhibitor (None = BWE alone)
[3] = insulin-stimulated, 15-min preincubation with the inhibitor (None = insulin alone)
[4] = BWE treatment, 15-min preincubation with PKA/PKC inhibitor (None = BWE alone)
[5] = insulin treatment, 15-min preincubation with PKA/PKC inhibitor (None = insulin alone)

Compound | effect of the inhibitor on insulin- and BWE-stimulated phosphorylation of MAPK [1] | p42/44 P-MAPK (Thr202/Tyr204) phosphorylation, stimulation (fold) relative to the control [1, 2] [fold] | p42/44 P-MAPK (Thr202/Tyr204) phosphorylation, stimulation (fold) relative to the control [1, 3] [fold] | PDK-1 (Ser241) phosphorylation, stimulation (fold) relative to the control (PDK-1 (Ser241); [2]) [fold] | PDK-1 (Ser241) phosphorylation, stimulation (fold) relative to the control (PDK-1 (Ser241); [3]) [fold] | Raf (Ser259) phosphorylation, stimulation (fold) relative to the control (Raf (Ser259); [2]) [fold] | Raf (Ser259) phosphorylation, stimulation (fold) relative to the control (Raf (Ser259); [3]) [fold] | phosphorylation of MAPK, stimulation (fold) relative to the control (Table 6) [1, 4] [fold] | phosphorylation of MAPK, stimulation (fold) relative to the control (Table 6) [1, 5] [fold] | also measured
1-butanol | required for stimulation of MAPK by insulin and the BWE |  |  |  |  |  |  |  |  | effect of the inhibitor on insulin-stimulated glucose uptake (FIG. 23) (H4IIE cells): decreased insulin-stimulated glucose uptake although the effect was not significant
O=c1cc(N2CCOCC2)oc2c(-c3ccccc3)cccc12 [LY294002] |  | 13.1 | 10.4 | 0.61 | 1.40 | 0.08 | 0.22 |  |  | 
CC(C)(C)c1cc(C=C(C#N)C#N)cc(Br)c1O [AG1024] |  |  | 16.74 |  | 2.30 |  | 0.26 |  |  | 
N#C/C(=C/c1ccc(O)c(O)c1)C(=O)NCc1ccccc1 [AG490] |  | 12.9 | 16.4 | 0.89 | 1.91 | 0.16 | 0.13 |  |  | 
Cn1c2ccccc2c2c3c(c4c5ccccc5n(CCC#N)c4c21)CNC3=O [Go6976] |  |  |  |  |  |  |  | 4.32 | 4.68 | 
COc1ccc2c(c1)CC[C@@H]1[C@@H]2CC[C@]2(C)[C@@H](NCCCCCCN3C(=O)C=CC3=O)CC[C@@H]12 [U73] |  | 8.6 | 13.4 | 0.49 | 2.30 | 0.12 | 0.99 |  |  | 
CC(=O)c1c(O)c(C)c(O)c(Cc2c(O)c3c(c(C(=O)/C=C/c4ccccc4)c2O)OC(C)(C)C=C3)c1O [Rottlerin] |  |  |  |  |  |  |  | 3.85 | 2.46 | 
COc1ccc2c(c1)c1c3c(c4c5ccccc5n(C)c4c1n2CC(O)CN(C)C)C(=O)NC3=O (stereo not shown) [Go7874] |  |  |  |  |  |  |  | 3.10 | 2.60 | 
Cc1ccc(-c2nn(C(C)(C)C)c3ncnc(N)c23)cc1 [PP1] | required for stimulation of MAPK by the BWE only |  |  |  |  |  |  |  |  | 
C[C@H]1CCC/C=C/[C@@H]2C[C@H](O)C[C@H]2[C@H](O)/C=C/C(=O)O1 [brefeldin, Brefeldin A] | not involved in this process |  |  |  |  |  |  |  |  | 
